Where two headings read alike, the source gives them in different places.
System: HIF-1-mediated transcription
Assay: HIF-1-mediated transcription under hypoxia, LN229-HRE-Lux luciferase reporter assay
Format: cell-based, human
Conditions: 24 h, LN229-HRE-Lux cells, hypoxia (1% O2), 24 h, read-out: IC50
Protocol: The synthesized analogues were evaluated for their potential to inhibit HIF-1-mediated transcription under hypoxia (1% O2) using a human glioma cell line LN229-HRE-Lux, which stably expresses a hypoxia-responsive luciferase reporter gene (Table 1-9). […] The compounds were tested in single (n=1) or multiple (n>1) independent experiments each carried out in quadruplicate.
LN229-HRE-luciferase human glioblastoma cells were used to perform the assay. […] 48-well plates were seeded with 3.10^4 cells per well and incubated under normoxic conditions for 24 h. Cells were then pre-treated with different concentrations of KCN-1 or its analogues for 1 h and then transferred to hypoxic conditions. After 24 h, media was aspirated, cells were lysed and reporter activity was measured in the lysate using Luciferase Assay System (Promega, Madison, Wis.) with 20/20^n Luminometer (Promega).

| Compound | IC50 (Homo sapiens, Table 1) [µM] | IC50 (Homo sapiens, Table 2) [µM] | also measured |
| --- | --- | --- | --- |
| COc1ccc(NCc2ccc3c(c2)C=CC(C)(C)O3)cc1OC [Compound 2a, (3,4-Dimethoxy-phenyl)-(2,2-dimethyl-2H-chromen-6-ylmethyl)-amine] | 3 |  |  |
| Cc1ccc(NCc2ccc3c(c2)C=CC(C)(C)O3)c(C)c1 [Compound 2c, (2,2-Dimethyl-2H-chromen-6-ylmethyl)-(2,4-dimethyl-phenyl)-amine] | > 25 |  |  |
| CC1(C)C=Cc2cc(CNc3ccc(C(=O)O)cc3)ccc2O1 [Compound 2d, 4-[(2,2-Dimethyl-2H-chromen-6-ylmethyl)-amino]-benzoic acid] | > 25 |  |  |
| CC1(C)C=Cc2cc(CNc3ccccc3Br)ccc2O1 [Compound 2e, (2-Bromo-phenyl)-(2,2-dimethyl-2H-chromen-6-ylmethyl)-amine] | > 25 |  |  |
| CC1(C)C=Cc2cc(CNc3ccccc3F)ccc2O1 [Compound 2f, (2,2-Dimethyl-2H-chromen-6-ylmethyl)-(2-fluoro-phenyl)-amine] | > 25 |  |  |
| COc1ccc(N(C)Cc2ccc3c(c2)C=CC(C)(C)O3)cc1OC [Compound 3a, (3,4-Dimethoxy-phenyl)-(2,2-dimethyl-2H-chromen-6-ylmethyl)-methylamine] | 5 |  |  |
| CN(Cc1ccc2c(c1)C=CC(C)(C)O2)c1ccccn1 [Compound 3b, (2,2-Dimethyl-2H-chromen-6-ylmethyl)-methyl-pyridin-2-yl-amine] | 8.4 |  |  |
| Cc1ccc(N(C)Cc2ccc3c(c2)C=CC(C)(C)O3)c(C)c1 [Compound 3c, (2,2-Dimethyl-2H-chromen-6-ylmethyl)-(2,4-dimethyl-phenyl)-methyl-amine] | 2.6 |  | IC50 (Homo sapiens): 2.6 µM |
| COc1ccc(S(=O)(=O)N(Cc2ccc3c(c2)C=CC(C)(C)O3)C(C)C)cc1OC [Compound 5a, N-(2,2-Dimethyl-2H-chromen-6-ylmethyl)-N-isopropyl-3,4-dimethoxy-benzenesulfonamide] |  | 3.1 |  |
| C#CCN(Cc1ccc2c(c1)C=CC(C)(C)O2)S(=O)(=O)c1ccc(OC)c(OC)c1 [Compound 5b, N-(2,2-Dimethyl-2H-chromen-6-ylmethyl)-3,4-dimethoxy-N-prop-2-ynyl-benzenesulfonamide] |  | 1.3 | IC50 (Homo sapiens): 1.3 µM |
| CCCCN(Cc1ccc2c(c1)C=CC(C)(C)O2)S(=O)(=O)c1ccc(OC)c(OC)c1 [Compound 5c, N-Butyl-N-(2,2-dimethyl-2H-chromen-6-ylmethyl)-3,4-dimethoxy-benzenesulfonamide] |  | 3.3 | IC50 (Homo sapiens): 3.3 µM |
| COc1ccc(S(=O)(=O)N(Cc2ccc3c(c2)C=CC(C)(C)O3)C(C)(C)C)cc1OC [Compound 5d, N-tert-Butyl-N-(2,2-dimethyl-2H-chromen-6-ylmethyl)-3,4-dimethoxy-benzenesulfonamide] |  | 3.5 | IC50 (Homo sapiens): 3.5 µM |
| C=CCN(Cc1ccc2c(c1)C=CC(C)(C)O2)S(=O)(=O)c1ccc(OC)c(OC)c1 [Compound 5e, N-Allyl-N-(2,2-dimethyl-2H-chromen-6-ylmethyl)-3,4-dimethoxy-benzenesulfonamide] |  | 3.4 |  |
| COc1ccc(S(=O)(=O)N(CCC(C)C)Cc2ccc3c(c2)C=CC(C)(C)O3)cc1OC [Compound 5f, N-(2,2-Dimethyl-2H-chromen-6-ylmethyl)-3,4-dimethoxy-N-(3-methyl-butyl)-benzenesulfonamide] |  | 1.6 |  |
| COc1ccc(S(=O)(=O)N(Cc2ccc3c(c2)C=CC(C)(C)O3)C2CCCC2)cc1OC [Compound 5g, N-Cyclopentyl-N-(2,2-dimethyl-2H-chromen-6-ylmethyl)-3,4-dimethoxy-benzenesulfonamide] |  | 0.5 | IC50 (Homo sapiens): 1.6 µM |
| COc1ccc(S(=O)(=O)N(Cc2ccc3c(c2)C=CC(C)(C)O3)C2CC2)cc1OC [Compound 5h, Cyclopropyl-N-(2,2-dimethyl-2H-chromen-6-ylmethyl)-3,4-dimethoxy-benzenesulfonamide] |  |  | IC50 (Table 2): 1.5 µM |
| COc1ccc(S(=O)(=O)N(Cc2ccc3c(c2)C=CC(C)(C)O3)C2CCCCC2)cc1OC [Compound 5i, N-Cyclohexyl-N-(2,2-dimethyl-2H-chromen-6-ylmethyl)-3,4-dimethoxy-benzenesulfonamide] |  | 4 |  |
